For orientation: AUC means concentration integrated over time. Usually Cmax stands for the highest concentration seen after dosing. For orientation: half-life means the time in which the quantity being followed falls by half. High values mean slow loss, low ones fast loss.

This note sets out measurements from US20220274983A1, “JAK KINASE INHIBITOR AND USE THEREOF” (JIANGSU CAREPHAR PHARMACEUTICAL CO., LTD., priority 2019, published 2022).

One data set concerns Hela cells. Put plainly: Proliferation inhibition based on Hela cells (OSM stimulation, CTG). It is filed as cell-based. Conditions: Homo sapiens, read-out: IC50 (uM), proliferation inhibitory activity on Hela cells. The protocol:
1. Cell plating: cultured cells were collected and counted for viable cells with Vi-Cell XR cell counter. The cell suspension was adjusted to an appropriate concentration with the medium and then added to a 96-well cell culture plate. 50 μL-100 μL of the cell suspension was added to each well of the 96-well cell culture plate. The cell plating density depended on the growth rate of the cells. The cells were cultured in corresponding incubators.
2. Drug Treatment and OSM Stimulation
(§1) Firstly, a series of test compound concentration (work solution-1) was prepared using DMSO with 3× gradient dilution, and then it was subjected to fold dilution with RPMI1640+10% FBS to obtain a work solution-2; Cisplatin's work solution-2 was prepared with RPMI1640+10% FBS, and then 1-10 μL solution taken from the work solution-2 was added to the prepared cell wells containing medium. After incubation, 1-10 μL of OSM medium was added to each well and continued to culture. An appropriate CTG solution was added to each well. The mixture was shaken and mixed for 1-5 min and then a luminescence signal was determined with an Envision2104 plate reader.
(§2) Cell Survival Rate Calculation
(§3) T is the luminescence reading of a drug treatment group, and C is the average luminescence reading of a solvent control group.

For another data set, the system named is THP1 cells. Description: Proliferation inhibition based on THP1 cells (IL-4 stimulation, CTG). It is filed as cell-based. To be noted: Homo sapiens, THP-1, read-out: IC50 (uM), proliferation inhibitory activity on THP1 cells. The protocol:
1. Cell plating: cultured cells were collected and counted for viable cells with Vi-Cell XR cell counter. The cell suspension was adjusted to an appropriate concentration with the medium and then added to a 96-well cell culture plate. 80 μL of the cell suspension was added to each well of the 96-well cell culture plate. The cell plating density depended on the growth rate of the cells. The cells were cultured in corresponding incubators.
as §1, with “2. Drug treatment and IL-4 stimulation: firstly,” for “Firstly,”, “medium. The cells were cultured in the corresponding incubators.” for “medium.”, “IL-4” for “OSM”, “well.” for “well. The mixture was shaken and mixed for 1-5 min and then a luminescence signal was determined with an Envision2104 plate reader.”
Cell Survial Rate Calculation
as §3

Another data set relates to BaF3 cells. Description: Proliferation inhibition based on BaF3 cells (IL-3 medium, CTG). Type of data set: cell-based. Conditions: Mus musculus, medium containing IL-3, read-out: IC50 (uM), proliferation inhibitory activity on BaF3 cells. The protocol: 1. Cell plating: cultured cells were collected with RPMI1640+10% FBS (containing IL-3) medium and counted for viable cells with Vi-Cell XR cell counter. The cell suspension was adjusted to an appropriate concentration with RPMI1640+10% FBS (containing IL-3) medium and then added to a 96-well cell culture plate. A certain amount of cell suspension was added to each well of the 96-well cell culture plate. The cells were cultured in corresponding incubators.
2. Drug treatment: a series of test compound concentration (work solution-1) was prepared using DMSO with 3× gradient dilution, and then it was subjected to fold dilution with RPMI1640+10% FBS (containing IL-3) to obtain a work solution-2; Cisplatin's work solution-2 was prepared with RPMI1640+10% FBS (containing IL-3), and then 1-10 μL solution taken from the work solution-2 was added to the prepared cell wells containing medium. The cells were cultured in the corresponding incubators. An appropriate CTG solution was added to each well.
as §2, §3

The nature of a further data set: Pharmacokinetic study. It is filed as in vivo. Conditions: rat, plasma; rats, oral, 1-10 mg/kg. Here is the method:
For the intravenous route and the oral route, the compound was formulated in an aqueous solution containing 5% DMSO+95% hydroxypropyl-β-cyclodextrin. Test animals were administered orally at 1-10 mg/kg and intravenously at 1-5 mg/kg. Each group included 3 rats. About 0.2 mL of blood was collected by jugular vein puncture with heparin sodium anticoagulant at the following time points: 0.083 h, 0.25 h, 0.5 h, 1 h, 2 h, 4 h, 6 h, 8 h, 10 h and 24 h. Plasma was separated by centrifugation at 5000-13000 rpm for 10 min within 1 hour after collecting the blood sample, and the plasma sample was analyzed on LC-MS/MS.
The pharmacokinetic parameters were calculated using Phoenix WinNonlin 7.0 based on blood drug concentration data at different time points to provide parameters such as AUC0-t, AUC0-∞, MRT0-∞, Cmax, Tmax, and T1/2.

For the next data set, the system named is rat CIA model. Put plainly: Hindfoot foot volume in rat CIA model. It is filed as in vivo, Lewis rats. To be noted: CIA rats, hindfoot, 10 mg/kg oral gavage once daily for 2 w.
In a further data set the target is T1, JAK3 (Homo sapiens, UniProt P52333).
T1 sequence (P52333 1-1124): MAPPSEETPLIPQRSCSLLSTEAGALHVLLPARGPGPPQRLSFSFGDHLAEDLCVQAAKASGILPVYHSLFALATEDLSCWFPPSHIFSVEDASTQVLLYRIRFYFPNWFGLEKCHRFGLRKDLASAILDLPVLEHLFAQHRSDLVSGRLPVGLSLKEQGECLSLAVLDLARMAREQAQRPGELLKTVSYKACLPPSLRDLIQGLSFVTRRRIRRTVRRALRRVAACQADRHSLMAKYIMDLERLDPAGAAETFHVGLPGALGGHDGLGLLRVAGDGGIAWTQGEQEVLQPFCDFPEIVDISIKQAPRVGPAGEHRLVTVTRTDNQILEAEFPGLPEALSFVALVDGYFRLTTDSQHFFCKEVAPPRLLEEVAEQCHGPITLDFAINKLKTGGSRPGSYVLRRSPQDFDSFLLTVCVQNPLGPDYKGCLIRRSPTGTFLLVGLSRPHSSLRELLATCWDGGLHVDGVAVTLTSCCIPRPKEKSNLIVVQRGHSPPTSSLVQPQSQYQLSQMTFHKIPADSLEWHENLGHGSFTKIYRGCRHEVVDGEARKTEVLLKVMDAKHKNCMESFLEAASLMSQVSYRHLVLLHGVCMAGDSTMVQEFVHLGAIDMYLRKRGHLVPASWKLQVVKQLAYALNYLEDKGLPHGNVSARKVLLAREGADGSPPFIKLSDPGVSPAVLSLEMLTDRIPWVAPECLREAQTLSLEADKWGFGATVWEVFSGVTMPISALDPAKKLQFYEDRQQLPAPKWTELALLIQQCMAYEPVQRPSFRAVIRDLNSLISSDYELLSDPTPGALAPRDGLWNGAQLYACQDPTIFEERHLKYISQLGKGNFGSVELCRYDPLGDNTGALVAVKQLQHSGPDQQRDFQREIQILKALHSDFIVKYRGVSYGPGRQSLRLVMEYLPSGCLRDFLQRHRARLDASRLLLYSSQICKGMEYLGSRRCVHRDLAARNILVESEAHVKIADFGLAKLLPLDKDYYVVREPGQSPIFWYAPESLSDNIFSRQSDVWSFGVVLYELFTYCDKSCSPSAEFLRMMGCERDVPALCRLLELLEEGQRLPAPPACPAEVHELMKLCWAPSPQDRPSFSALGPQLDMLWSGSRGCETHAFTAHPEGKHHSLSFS
Description: JAK kinase inhibitory activity, HTRF biochemical assay. The protocol: (§4) The compounds of the above embodiments were applied to the detection and screening of JAK kinase inhibitory activity.
(§5) A corresponding volume of DMSO was added to each well of a first 96-well plate. 20-30 μL of 100-200 μM stock solution of different test compounds were added to each well. The mixture was shaken and mixed for 3 min. All of the compounds were subjected to 3× serial dilution. 60-80 μL Kinase buffer was added to each well of a second 96-well plate, and 1-2 μL of the solution taken from each well of the first 96-well plate was added to the corresponding well of the second 96-well plate. The mixture was shaken and mixed for 3 min. 5 μL of compound dilution taken from each well of the second compound dilution plate was transferred to the corresponding well of a 384-well test plate. 1-2 μL TK Substrate-biotin was added to each well of the test plate. 1-2 μL of enzyme mixture was added to each well. At the same time, a blank well without enzyme was set. 1-2 μL of ATP solution was added to each well, the plate was sealed and reacted at room temperature. The reaction time was as follows: JAK1: 2 h, JAK2: 30 min, JAK3: 30 min, and TYK2: 50 min. 3-5 μL of Streptavidin-XL665 and 3-5 μL of TK Antibody-cryptate were added to each well, the plate was sealed and allowed to stand at room temperature for 30 min to complete the reaction.
(§6) The percentage of inhibition was calculated based on the following formula:
(§7) Inhibition %=[(Ratiomax−Ratiocompound)/(Ratiomax−Ratiomin)]×100%
(§8) Ratiocompound is the HTRF ratio at a given compound concentration, Ratiomin is the HTRF ratio added to the blank well, and Ratiomax is the HTRF ratio without adding the compound. GraphPad Prism 5.0 software was used to plot a sigmoid dose-inhibition rate curve with a non-linear regression model and calculate the IC50 value.
(TR-FRET usually uses a lanthanide donor and a delayed reading to cut background.)

A further data set has as its target TYK2 (Homo sapiens, UniProt P29597). The description is as above. Here is the method:
as §4, §5, §6, §7, §8

The target in the next data set is JAK2 (Homo sapiens, UniProt O60674). Described as above. Here is the method:
as §4, §5, §6, §7, §8

In a further data set the target is JAK1 (Homo sapiens, UniProt P23458). Described as above. Here is the method: as §4, §5, §6, §7, §8
Sequence of JAK1 (P23458 whole entry, species assumed): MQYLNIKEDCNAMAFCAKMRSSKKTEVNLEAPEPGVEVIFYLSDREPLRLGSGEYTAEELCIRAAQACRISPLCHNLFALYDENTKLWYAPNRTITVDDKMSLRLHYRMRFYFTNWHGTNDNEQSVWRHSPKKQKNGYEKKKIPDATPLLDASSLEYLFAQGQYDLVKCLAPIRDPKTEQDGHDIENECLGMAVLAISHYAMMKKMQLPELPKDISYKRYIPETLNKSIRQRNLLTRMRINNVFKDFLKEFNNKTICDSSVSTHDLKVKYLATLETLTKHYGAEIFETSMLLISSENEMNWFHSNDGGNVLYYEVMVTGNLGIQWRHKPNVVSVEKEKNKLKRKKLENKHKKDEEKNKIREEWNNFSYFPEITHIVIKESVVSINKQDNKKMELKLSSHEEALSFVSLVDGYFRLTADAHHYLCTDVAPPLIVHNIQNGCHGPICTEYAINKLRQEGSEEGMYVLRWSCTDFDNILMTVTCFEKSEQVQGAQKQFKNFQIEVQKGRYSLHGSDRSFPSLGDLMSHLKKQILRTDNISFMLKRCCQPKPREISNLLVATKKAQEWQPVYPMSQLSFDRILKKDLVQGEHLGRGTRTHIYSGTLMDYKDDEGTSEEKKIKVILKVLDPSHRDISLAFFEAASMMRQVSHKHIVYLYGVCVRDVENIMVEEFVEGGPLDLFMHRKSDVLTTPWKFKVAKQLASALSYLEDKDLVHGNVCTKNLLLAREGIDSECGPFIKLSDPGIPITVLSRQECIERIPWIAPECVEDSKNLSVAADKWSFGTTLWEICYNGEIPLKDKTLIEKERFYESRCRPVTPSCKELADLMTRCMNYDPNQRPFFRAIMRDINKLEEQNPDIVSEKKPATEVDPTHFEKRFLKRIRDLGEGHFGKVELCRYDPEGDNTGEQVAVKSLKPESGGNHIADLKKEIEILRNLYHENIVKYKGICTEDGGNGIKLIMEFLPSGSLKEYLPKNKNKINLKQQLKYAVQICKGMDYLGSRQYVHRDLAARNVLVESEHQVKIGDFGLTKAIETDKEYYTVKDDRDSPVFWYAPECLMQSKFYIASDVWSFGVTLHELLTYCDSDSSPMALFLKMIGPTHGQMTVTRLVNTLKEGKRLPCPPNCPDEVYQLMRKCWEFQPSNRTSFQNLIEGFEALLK

Each structure is given as a SMILES string. Where two headings read alike, the source gives them in different places.

Sequence of JAK2 (O60674 whole entry, species assumed): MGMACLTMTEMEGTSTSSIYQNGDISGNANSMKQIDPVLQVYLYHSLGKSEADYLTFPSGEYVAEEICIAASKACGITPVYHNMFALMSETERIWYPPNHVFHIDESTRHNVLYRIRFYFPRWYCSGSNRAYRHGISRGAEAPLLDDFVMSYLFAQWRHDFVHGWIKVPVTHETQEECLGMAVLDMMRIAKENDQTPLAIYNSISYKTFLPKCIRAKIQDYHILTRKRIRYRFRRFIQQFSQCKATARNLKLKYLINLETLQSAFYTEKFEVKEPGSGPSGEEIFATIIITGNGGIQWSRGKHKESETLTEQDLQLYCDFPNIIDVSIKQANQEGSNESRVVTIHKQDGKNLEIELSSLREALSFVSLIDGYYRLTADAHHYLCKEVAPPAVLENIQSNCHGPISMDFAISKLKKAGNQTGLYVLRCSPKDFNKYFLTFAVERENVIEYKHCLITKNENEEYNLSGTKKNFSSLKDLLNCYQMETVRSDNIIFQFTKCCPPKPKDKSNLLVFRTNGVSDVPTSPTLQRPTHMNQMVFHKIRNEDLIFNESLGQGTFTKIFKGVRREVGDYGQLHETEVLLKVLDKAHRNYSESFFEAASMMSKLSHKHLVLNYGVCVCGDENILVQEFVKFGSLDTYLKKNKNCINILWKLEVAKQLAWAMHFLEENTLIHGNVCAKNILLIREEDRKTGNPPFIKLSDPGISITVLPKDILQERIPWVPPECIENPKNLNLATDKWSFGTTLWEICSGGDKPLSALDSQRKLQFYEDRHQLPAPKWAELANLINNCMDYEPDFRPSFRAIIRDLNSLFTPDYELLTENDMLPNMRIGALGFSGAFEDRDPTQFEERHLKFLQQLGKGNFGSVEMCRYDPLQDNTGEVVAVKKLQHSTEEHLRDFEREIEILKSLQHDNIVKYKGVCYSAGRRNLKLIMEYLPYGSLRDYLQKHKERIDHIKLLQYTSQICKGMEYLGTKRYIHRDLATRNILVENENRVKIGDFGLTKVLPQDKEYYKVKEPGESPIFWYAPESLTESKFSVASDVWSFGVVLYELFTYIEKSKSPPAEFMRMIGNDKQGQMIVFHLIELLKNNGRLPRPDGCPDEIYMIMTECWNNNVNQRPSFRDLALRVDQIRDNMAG
Sequence of TYK2 (P29597 whole entry, species assumed): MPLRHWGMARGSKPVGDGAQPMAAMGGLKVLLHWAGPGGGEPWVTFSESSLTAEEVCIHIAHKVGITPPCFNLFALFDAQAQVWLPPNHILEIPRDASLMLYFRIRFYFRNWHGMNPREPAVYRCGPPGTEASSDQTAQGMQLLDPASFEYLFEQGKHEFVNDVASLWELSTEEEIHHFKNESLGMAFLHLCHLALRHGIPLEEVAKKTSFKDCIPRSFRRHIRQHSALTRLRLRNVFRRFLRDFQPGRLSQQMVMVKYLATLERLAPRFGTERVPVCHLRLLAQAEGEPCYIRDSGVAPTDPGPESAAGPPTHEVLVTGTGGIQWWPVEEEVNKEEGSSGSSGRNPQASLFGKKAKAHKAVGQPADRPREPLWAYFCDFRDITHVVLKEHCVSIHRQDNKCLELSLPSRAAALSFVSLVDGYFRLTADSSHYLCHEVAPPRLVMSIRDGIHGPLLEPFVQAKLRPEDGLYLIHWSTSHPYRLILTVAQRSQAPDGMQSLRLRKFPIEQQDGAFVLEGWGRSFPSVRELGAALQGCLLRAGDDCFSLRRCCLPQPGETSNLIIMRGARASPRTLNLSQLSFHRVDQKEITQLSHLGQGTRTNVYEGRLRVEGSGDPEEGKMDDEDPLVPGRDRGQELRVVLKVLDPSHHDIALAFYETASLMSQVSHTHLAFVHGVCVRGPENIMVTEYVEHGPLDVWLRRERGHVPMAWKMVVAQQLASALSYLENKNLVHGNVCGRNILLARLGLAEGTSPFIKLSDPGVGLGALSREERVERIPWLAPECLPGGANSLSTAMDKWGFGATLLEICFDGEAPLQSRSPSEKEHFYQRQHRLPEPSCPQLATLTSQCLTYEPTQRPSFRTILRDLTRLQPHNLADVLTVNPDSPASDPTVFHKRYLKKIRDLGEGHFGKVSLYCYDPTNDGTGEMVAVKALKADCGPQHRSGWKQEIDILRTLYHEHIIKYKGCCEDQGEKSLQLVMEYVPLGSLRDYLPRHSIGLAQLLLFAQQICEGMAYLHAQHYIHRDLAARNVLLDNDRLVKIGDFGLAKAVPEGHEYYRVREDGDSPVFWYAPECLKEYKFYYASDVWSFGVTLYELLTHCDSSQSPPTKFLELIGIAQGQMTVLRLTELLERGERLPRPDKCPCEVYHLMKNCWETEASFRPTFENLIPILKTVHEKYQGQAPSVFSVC
Description for rat CIA model: Lewis rats (female, 10-12 weeks old) were obtained from Beijing Vital River Laboratory Animal Technology Co., Ltd. The rats were on a light and dark alternation for 12 h, and the environment was kept at a temperature of 23±2° C. and a humidity of 40-70%.
Type II collagen solution (2 mg/mL) was prepared with 0.05 M acetic acid solution to allow to be fully dissolved, and placed overnight in the dark at 4° C. During the test, 2 mg/mL type II collagen (C II) solution and 4 mg/mL complete Freund's adjuvant (CFA) solution were mixed in equal volumes under ice bath conditions to fully emulsify. On day 0, an emulsion prepared by mixing equal volumes of C II (2 mg/mL) and CFA (4 mg/mL) was injected intracutaneously into the base of the tail of experimental rats for primary immunization, and on day 7, secondary booster immunization was performed.
The therapeutic effect of the test compound was tested in a rat CIA model. The rats were randomly divided into groups with 8 animals in each group. All animals were immunized on day 0 and boosted on day 7.
Therefore, the differences in body weight and foot volume after the onset of arthritis compared with the negative group, respectively, can be used to evaluate the therapeutic effect in the rat model. The experimental data were expressed as Mean±SEM; the data between the two groups was tested by unpaired t-test and p<0.05 was considered as a significant difference.

In the case of `O=C(Nc1nc2cccc(-c3ccc(CN4CCS(=O)(=O)CC4)cc3)n2n1)C1CC1` [Filgotinib, reference compound], the IC50 with Hela cells, in the data set with THP1 cells and with BaF3 cells was 5 to 30 µM in each case. This compound displayed an area under the curve (AUC) in the data set “Pharmacokinetic study” of 2850 ng·h/mL. This compound showed a Cmax in the data set “Pharmacokinetic study” of 426 ng/mL. Further, in the data set “Pharmacokinetic study”, the half-life was 234 min. Moreover, the “Foot volume (ml)/Day” value with rat CIA model (day 0) was found to be 2.597 ± 0.014 mL; in the data set on rat CIA model (day 8), 2.589 ± 0.020 mL; with rat CIA model (day 11), 2.700 ± 0.090 mL; in the data set with rat CIA model (day 14), 3.644 ± 0.330 mL; with rat CIA model (day 17) it was 4.702 ± 0.255 mL; with rat CIA model (day 21), 4.829 mL. For the same compound, the “Foot volume (ml)/Day” value in the data set with rat CIA model (day 24) was 4.769 mL; in the data set on rat CIA model (day 28), 4.363 mL.
In the case of `O=C(Nc1nc2cccc(-c3ccc(CN4CCS(=O)(=O)CC4)s3)n2n1)[C@H]1C[C@@H]1F` [EXP-6], the IC50 at JAK3 is greater than 500 nM; against TYK2, greater than 500 nM; against JAK2, 50 to 500 nM; against JAK1 it was 50 to 500 nM.
`O=C(Nc1nc2cccc(-c3ccc(CN4CCS(=O)(=O)CC4)s3)n2n1)[C@H]1C[C@H]1F` (relative stereo) [EXP-5, N-[5-[4-[(1,1-dioxothiomorpholine)methyl]thienyl]-[1,2,4]triazolo[1,5-a]pyridin-2-yl]-cis-2-fluoro-cyclopropanecarboxamide]: the IC50 is 5 to 30 µM in the data set on Hela cells (OSM stimulation); 50 to 500 nM at JAK2; 50 to 500 nM against JAK1; less than 5 µM in the data set with THP1 cells; less than 5 µM with BaF3 cells.
With `Cc1cc(-c2cccc3nc(NC(=O)C4CC4)nn23)sc1CN1CCS(=O)(=O)CC1` [EXP-2], the IC50 with Hela cells (OSM stimulation) was less than 5 µM; on JAK2 it was 50 to 500 nM; on JAK1, 50 to 500 nM; in the data set with THP1 cells it was less than 5 µM; with BaF3 cells it was less than 5 µM.
